In paper PMC12888861, “Antibacterial activity of enmetazobactam against Acinetobacter spp.: a molecular dissection of mechanism of action and resistance determinants” (Antimicrobial Agents and Chemotherapy, 2025):
In brackets after ≈: the same amount, converted by molar mass. Like-named read-outs stand apart in the source and are kept apart here.

Key:
[1] = system: A. non-baumannii isolates (n = 87); assay: MIC, broth microdilution (EUCAST), A. non-baumannii isolates; format: cell-based, Acinetobacter spp. (non-baumannii); conditions: for MIC: read-out: MIC
Source text: The bacterial strains used in this study comprised 208 clinical isolates from the Spanish National Acinetobacter spp. 2020 Multicenter Collection, which was previously characterized in detail by our research group, including whole-genome sequencing, phylogenetics studies, clonal dynamics, and resistance mechanisms ([2], [29]). Additionally, a collection of A. baumannii ATCC 17978 transformants coding the blaOXA-23, blaOXA-24/40, blaOXA-51, blaOXA-58, blaOXA-143, and blaOXA-201 genes, previously constructed and described by our group ([30]), was used to determine the activity of enmetazobactam against strains carrying the main CHDLs of A. baumannii.
The antimicrobial susceptibility of the 208 Acinetobacter spp. isolates was assessed using the broth microdilution method, as described in the European Committee on Antimicrobial Susceptibility Testing (EUCAST) v.15 guidelines (http://www.eucast.org/clinical_breakpoints). […] MICs for enmetazobactam alone were assessed as well. […] Subsequently, MIC testing was also conducted with a collection of A. baumannii ATCC 17978 transformants expressing clinically relevant OXA-like carbapenemase genes.
The A. baumannii ATCC 19606 strain was used as the reference strain in all susceptibility experiments, in duplicate assays. Antibiotics were purchased from Sigma-Aldrich, except enmetazobactam and durlobactam, which were obtained from Advanz Pharma and MedChemExpress, respectively.

[2] = system: Acinetobacter spp. clinical isolates; assay: MBC testing, nine clinical isolates; format: cell-based
Experimental: In order to determine the bactericidal activity of enmetazobactam, MBC testing was carried out by subculturing 100 μL aliquots from wells containing antimicrobial concentrations equal to or greater than the MIC of enmetazobactam onto Mueller-Hinton agar plates. […] The MBCs were evaluated for a total of nine clinical isolates: (i) three CRAB, (ii) three carbapenem-susceptible A. baumannii, and (iii) three A. non-baumannii isolates. The plates were incubated at 37°C for 24 h, and viable colonies were counted.

[3] = system: carbapenem-resistant CHDL-producing A. baumannii isolates (OXA-23, OXA-24/40, OXA-58); assay: Checkerboard synergy assay (FIC index); format: cell-based, Acinetobacter baumannii; conditions: Acinetobacter baumannii, alone or in presence of the partner
Experimental: Checkerboard assays were performed to assess synergistic interactions between the cefepime/enmetazobactam combination and sulbactam, as well as between enmetazobactam alone and either sulbactam or colistin. […] The assays were conducted with three multidrug-resistant A. baumannii isolates from the Spanish Multicenter Collection, each producing a different OXA-type carbapenemase: OXA-23, OXA-24/40, or OXA-58. The FIC index was calculated and interpreted as follows: FICindex ≤ 0.5, synergy; FICindex > 0.5–4, no synergy; and FICindex > 4, antagonism ([33], [34]).

[4] = Acinetobacter, A. non-baumannii isolates (n=87), ETZ fixed 8 mg/L in combinations

Question: How did the MIC ([1]; Acinetobacter pittii, isolate NO-Ab145, Acinetobacter pittii, in combinations ETZ fixed at 8 mg/L) turn out when `C[n+]1ccn(C[C@@]2(C)[C@H](C(=O)[O-])N3C(=O)C[C@H]3S2(=O)=O)n1` [enmetazobactam] was run?
Answer: The MIC was 2 µg/mL.

Question: And the MIC ([1]; Acinetobacter pittii, isolate NO-Ab151, Acinetobacter pittii, in combinations ETZ fixed at 8 mg/L)?
Answer: Its MIC is 4 µg/mL.

Question: What about the MIC ([1]; Acinetobacter pittii, isolate NO-Ab154, Acinetobacter pittii, in combinations ETZ fixed at 8 mg/L) of the same molecule?
Answer: Its MIC is 2 µg/mL.

Question: And the MIC ([1]; Acinetobacter pittii, isolate NO-Ab157, Acinetobacter pittii, in combinations ETZ fixed at 8 mg/L)?
Answer: The MIC was 4 µg/mL.

Question: What about the MIC ([1]; Acinetobacter pittii, isolate NO-Ab162, Acinetobacter pittii, in combinations ETZ fixed at 8 mg/L) of the same molecule?
Answer: The MIC was 4 µg/mL.

Question: And the MIC ([1]; Acinetobacter pittii, isolate NO-Ab164, Acinetobacter pittii, in combinations ETZ fixed at 8 mg/L)?
Answer: Its MIC is 2 µg/mL.

Question: And the MIC ([1]; Acinetobacter pittii, isolate NO-Ab178, Acinetobacter pittii, in combinations ETZ fixed at 8 mg/L)?
Answer: Its MIC is 2 µg/mL.

Question: And the MIC ([1]; Acinetobacter pittii, isolate NO-Ab197, Acinetobacter pittii, in combinations ETZ fixed at 8 mg/L)?
Answer: Its MIC is 2 µg/mL.

Question: What about the MIC ([1]; Acinetobacter proteolyticus, isolate NO-Ab99, Acinetobacter proteolyticus, in combinations ETZ fixed at 8 mg/L) of the same molecule?
Answer: The MIC was 2 µg/mL.

Question: And the MIC ([1]; Acinetobacter proteolyticus, isolate NO-Ab102, Acinetobacter proteolyticus, in combinations ETZ fixed at 8 mg/L)?
Answer: Its MIC is 4 µg/mL.

Question: What about the MIC ([1]; Acinetobacter proteolyticus, isolate NO-Ab210, Acinetobacter proteolyticus, in combinations ETZ fixed at 8 mg/L) of the same molecule?
Answer: Its MIC is 1 µg/mL.

Question: And the MIC ([1]; Acinetobacter radioresistens, isolate NO-Ab175, Acinetobacter radioresistens, in combinations ETZ fixed at 8 mg/L)?
Answer: The MIC was 1 µg/mL.

Question: And the MIC ([1]; Acinetobacter radioresistens, isolate NO-Ab215, Acinetobacter radioresistens, in combinations ETZ fixed at 8 mg/L)?
Answer: Its MIC is 0.5 µg/mL.

Question: And the MIC ([1]; Acinetobacter ursingii, isolate NO-Ab3, Acinetobacter ursingii, in combinations ETZ fixed at 8 mg/L)?
Answer: Its MIC is 0.25 µg/mL.

Question: What about the MIC ([1]; Acinetobacter ursingii, isolate NO-Ab64, Acinetobacter ursingii, in combinations ETZ fixed at 8 mg/L) of the same molecule?
Answer: The MIC was 1 µg/mL.

Question: And the MIC ([1]; Acinetobacter ursingii, isolate NO-Ab87, Acinetobacter ursingii, in combinations ETZ fixed at 8 mg/L)?
Answer: The MIC was 0.5 µg/mL.

Question: What about the MIC ([1]; Acinetobacter ursingii, isolate NO-Ab103, Acinetobacter ursingii, in combinations ETZ fixed at 8 mg/L) of the same molecule?
Answer: The MIC was 0.5 µg/mL.

Question: And the MIC ([1]; Acinetobacter ursingii, isolate NO-Ab119, Acinetobacter ursingii, in combinations ETZ fixed at 8 mg/L)?
Answer: Its MIC is 8 µg/mL.

Question: And the MIC ([1]; Acinetobacter ursingii, isolate NO-Ab120, Acinetobacter ursingii, in combinations ETZ fixed at 8 mg/L)?
Answer: Its MIC is 1 µg/mL.

Question: And the MIC ([1]; Acinetobacter ursingii, isolate NO-Ab123, Acinetobacter ursingii, in combinations ETZ fixed at 8 mg/L)?
Answer: The MIC was 2 µg/mL.

Question: And the MIC ([1]; Acinetobacter ursingii, isolate NO-Ab126, Acinetobacter ursingii, in combinations ETZ fixed at 8 mg/L)?
Answer: The MIC was 0.5 µg/mL.

Question: And the MIC ([1]; Acinetobacter ursingii, isolate NO-Ab147, Acinetobacter ursingii, in combinations ETZ fixed at 8 mg/L)?
Answer: Its MIC is 4 µg/mL.

Question: And the MIC ([1]; Acinetobacter ursingii, isolate NO-Ab155, Acinetobacter ursingii, in combinations ETZ fixed at 8 mg/L)?
Answer: Its MIC is 4 µg/mL.

Question: And the MIC ([1]; Acinetobacter ursingii, isolate NO-Ab165, Acinetobacter ursingii, in combinations ETZ fixed at 8 mg/L)?
Answer: Its MIC is 2 µg/mL.

Question: And the MIC ([1]; Acinetobacter ursingii, isolate NO-Ab166, Acinetobacter ursingii, in combinations ETZ fixed at 8 mg/L)?
Answer: The MIC was 0.5 µg/mL.

Question: And the MIC ([1]; Acinetobacter ursingii, isolate NO-Ab214, Acinetobacter ursingii, in combinations ETZ fixed at 8 mg/L)?
Answer: Its MIC is 0.5 µg/mL.

Question: And the MIC ([1]; Acinetobacter ursingii, isolate NO-Ab221, Acinetobacter ursingii, in combinations ETZ fixed at 8 mg/L)?
Answer: Its MIC is 1 µg/mL.

Question: And the MIC ([1]; Acinetobacter ursingii, isolate NO-Ab222, Acinetobacter ursingii, in combinations ETZ fixed at 8 mg/L)?
Answer: The MIC was 1 µg/mL.

Question: And the MIC ([1]; Acinetobacter, MBC set, isolate NO-Ab84, A. bereziniae)?
Answer: The MIC was 1 µg/mL (≈ 3.18 µM).

Question: What about the MIC ([1]; Acinetobacter, MBC set, isolate NO-Ab88, A. dijkshoorniae) of the same molecule?
Answer: The MIC was 2 µg/mL (≈ 6.36 µM).

Question: What about the MIC ([1]; Acinetobacter, isolate NO-Ab146, Acinetobacter iwoffii, in combinations ETZ fixed at 8 mg/L) of the same molecule?
Answer: The MIC was 4 µg/mL.

Question: And the MIC ([1]; Acinetobacter, isolate NO-Ab159, Acinetobacter iwoffii, in combinations ETZ fixed at 8 mg/L)?
Answer: The MIC was 2 µg/mL.

Question: And the MIC50 [1, 4]?
Answer: The MIC50 was 2 µg/mL.

Question: And the MIC90 [1, 4]?
Answer: Its MIC90 is 4 µg/mL.

Question: What about the “MIC distribution 0.25” value ([1]; cumulative share of A. non-baumannii isolates (n=87) at MIC 0.25 mg/L, ETZ fixed 8 mg/L in combinations) of the same molecule?
Answer: The value was 1.1.

Question: What about the “MIC distribution 0.5” value ([1]; cumulative share of A. non-baumannii isolates (n=87) at MIC 0.5 mg/L, ETZ fixed 8 mg/L in combinations) of the same molecule?
Answer: Its value is 9.2.

Question: And the “MIC distribution 1” value ([1]; cumulative share of A. non-baumannii isolates (n=87) at MIC 1 mg/L, ETZ fixed 8 mg/L in combinations)?
Answer: The value was 29.9.

Question: What about the “MIC distribution 2” value ([1]; cumulative share of A. non-baumannii isolates (n=87) at MIC 2 mg/L, ETZ fixed 8 mg/L in combinations) of the same molecule?
Answer: The value was 75.9.

Question: What about the “MIC distribution 4” value ([1]; cumulative share of A. non-baumannii isolates (n=87) at MIC 4 mg/L, ETZ fixed 8 mg/L in combinations) of the same molecule?
Answer: Its value is 96.6.

Question: What about the “MIC distribution 8” value ([1]; cumulative share of A. non-baumannii isolates (n=87) at MIC 8 mg/L, ETZ fixed 8 mg/L in combinations) of the same molecule?
Answer: The value was 98.9.

Question: What about the “MIC distribution 16” value ([1]; cumulative share of A. non-baumannii isolates (n=87) at MIC 16 mg/L, ETZ fixed 8 mg/L in combinations) of the same molecule?
Answer: Its value is 100.

Question: And the “MIC distribution 32” value ([1]; cumulative share of A. non-baumannii isolates (n=87) at MIC 32 mg/L, ETZ fixed 8 mg/L in combinations)?
Answer: The value was 100.

Question: And the “MIC distribution ≤0.06” value ([1]; cumulative share of A. non-baumannii isolates (n=87) at MIC ≤0.06 mg/L, ETZ fixed 8 mg/L in combinations)?
Answer: The value was 0.

Question: And the MBC ([2]; Acinetobacter, isolate NO-Ab84, A. bereziniae)?
Answer: Its MBC is 2 µg/mL (≈ 6.36 µM).

Question: And the MBC ([2]; Acinetobacter, isolate NO-Ab88, A. dijkshoorniae)?
Answer: The MBC was 2 µg/mL (≈ 6.36 µM).

Question: What about the MBC ([2]; isolate Ab1, A. baumannii ST 164, ADC-6, OXA-91, non-CHDLs-producing) of the same molecule?
Answer: The MBC was 4 µg/mL (≈ 12.7 µM).

Question: And the MBC ([2]; isolate Ab4, A. baumannii ST 2, ADC-30, OXA-66, ISAba1-OXA-23)?
Answer: The MBC was 64 µg/mL (≈ 204 µM).

Question: What about the MBC ([2]; isolate Ab6, A. baumannii ST 2, ADC-30, OXA-66, ISAba1-OXA-23, TEM-12) of the same molecule?
Answer: Its MBC is 64 µg/mL (≈ 204 µM).

Question: What about the MBC ([2]; isolate Ab9, A. baumannii ST 2, ADC-30, OXA-66, OXA-23, TEM-12) of the same molecule?
Answer: The MBC was 8 µg/mL (≈ 25.5 µM).

Question: What about the MBC ([2]; isolate Ab11, A. baumannii ST 239, ADC-2, OXA-51, non-CHDLs-producing) of the same molecule?
Answer: The MBC was 16 µg/mL (≈ 50.9 µM).

Question: What about the MBC ([2]; isolate Ab34, A. baumannii ST 2182, ADC-2, OXA-130, non-CHDLs-producing) of the same molecule?
Answer: The MBC was 8 µg/mL (≈ 25.5 µM).

Question: And the MBC ([2]; isolate NO-Ab89, A. pittii)?
Answer: The MBC was 2 µg/mL (≈ 6.36 µM).

Question: And the “MBC relative to MIC” value ([2]; nine clinical isolates, most of the isolates)?
Answer: Its value is “the same or up to twofold higher”.

Question: And the MIC ([3]; checkerboard colistin x enmetazobactam, isolate Ab4 (OXA-23))?
Answer: The MIC was 64 µg/mL.

Question: What about the MIC ([3]; checkerboard colistin x enmetazobactam, isolate Ab138 (OXA-58)) of the same molecule?
Answer: The MIC was 32 µg/mL.

Question: And the MIC ([3]; checkerboard colistin x enmetazobactam, isolate Ab180 (OXA-24/40))?
Answer: Its MIC is 16 µg/mL.

Question: What about the MIC ([3]; checkerboard sulbactam x enmetazobactam, isolate Ab4 (OXA-23)) of the same molecule?
Answer: The MIC was 128 µg/mL.

Question: And the MIC ([3]; checkerboard sulbactam x enmetazobactam, isolate Ab138 (OXA-58))?
Answer: The MIC was 32 µg/mL.

Question: And the MIC ([3]; checkerboard sulbactam x enmetazobactam, isolate Ab180 (OXA-24/40))?
Answer: The MIC was 16 µg/mL.
